Measured values published in patent publication US10577373B2, “TYK2 inhibitors and uses thereof” (Nimbus Lakshmi, Inc., priority 2017, dated 2020).

What was measured:
[1] = tested on: GM-CSF induced STAT5 phosphorylation mediated by the JAK2/JAK2 homdimeric complex; test: GM-CSF Induced pSTAT5 in Human PBMC; details: Homo sapiens, PBMC, 20 min, read-out: PBMC_GMCSF_pSTAT5 IC50, human PBMC; GM-CSF 5 ng/mL for 20 minutes; pSTAT5
Source text: Human PBMC are isolated from buffy coat and are stored frozen for assays as needed.

[2] = tested on: IL-12 induced STAT4 phophorylation mediated by Tyk2/JAK2 (heterodimeric complex); test: IL-12 Induced pSTAT4 in Human PBMC; assay type: cell-based; details: 1.7 ng/mL IL-12
Source text: The IL-12 Induced pSTAT4 assay evaluates the inhibition of IL-12 induced STAT4 phophorylation mediated by Tyk2/JAK2 (heterodimeric complex).

Structure (SMILES)	IC50 [1]	IC50 [2]
CNc1cc(Nc2cccn(-c3cccc(C(C)(C)O)n3)c2=O)nc2c(C(=O)N[C@H]3C[C@H]3F)cnn12 [I-123]	> 50000 nM	< 100 nM
CNc1cc(Nc2cccn(-c3cnc(C(=O)N(C)C)cn3)c2=O)nc2c(C(=O)N[C@H]3C[C@H]3F)cnn12 [I-126]	> 50000 nM	< 100 nM
CNc1cc(Nc2cccn(-c3cc(C)n(C)n3)c2=O)nc2c(C(=O)N[C@H]3C[C@H]3F)cnn12 [I-137]	> 50000 nM	< 100 nM
CNc1cc(Nc2cccn(-c3cc(C)n(C)n3)c2=O)nc2c(C(=O)NC3CC3)cnn12 [I-138]	> 50000 nM	< 100 nM
CNc1cc(Nc2cccn(-c3ccn(C)n3)c2=O)nc2c(C(=O)NC3CCC3)cnn12 [I-139]	> 50000 nM	< 100 nM
CNc1cc(Nc2cccn(-c3ccc(C)nn3)c2=O)nc2c(C(=O)NC3CCC3)cnn12 [I-141]	> 50000 nM	< 100 nM
CNc1cc(Nc2cccnc2OC(C)C)nc2c(C(=O)NC3CCC3)cnn12 [I-145]	> 50000 nM	100 to 500 nM
CNc1cc(Nc2cccnc2OC(C)C)nc2c(C(=O)N[C@H]3C[C@H]3F)cnn12 [I-147]	> 50000 nM	< 100 nM
CNc1cc(Nc2cccnc2OC(F)F)nc2c(C(=O)NC3CCC3)cnn12 [I-151]	> 50000 nM	< 100 nM
CNc1cc(Nc2cccn(-c3ccon3)c2=O)nc2c(C(=O)NC3CCC3)cnn12 [I-158]	> 50000 nM	< 100 nM
CNc1cc(Nc2cc(Cl)cn(-c3ccc(C)nn3)c2=O)nc2c(C(=O)N[C@H]3C[C@H]3F)cnn12 [I-164]	> 50000 nM	< 100 nM
CNc1cc(Nc2cccnc2OC2CCC2)nc2c(C(=O)N[C@H]3C[C@H]3F)cnn12 [I-170]	> 50000 nM	< 100 nM
[2H]C([2H])([2H])Oc1ncccc1Nc1cc(NC)n2ncc(C(=O)NC3CCC3)c2n1 [I-176]	> 50000 nM	< 100 nM
CNc1cc(Nc2cc(F)cnc2OC(C)C)nc2c(C(=O)N[C@H]3C[C@H]3F)cnn12 [I-211]	> 50000 nM	100 to 500 nM
CNc1cc(Nc2cccnc2OC2CC2)nc2c(C(=O)NC3CC3)cnn12 [I-215, 5-((2-cyclopropoxypyridin-3-yl)amino)-N-cyclopropyl-7-(methylamino) pyrazolo[1,5-a]pyrimidine-3-carboxamide]	> 50000 nM	< 100 nM
CNc1cc(Nc2cccnc2OC2CC2)nc2c(C(=O)N[C@H]3C[C@H]3F)cnn12 [I-217]	> 50000 nM	< 100 nM
CNc1cc(Nc2cccnc2OCCOC)nc2c(C(=O)N[C@H]3C[C@H]3F)cnn12 [I-220]	> 12500 nM	< 100 nM
CNc1cc(-c2cn(C(C)C)c3ncccc23)nc2c(C(=O)NC3CC3)cnn12 [I-223]	> 12500 nM	< 100 nM
CNc1cc(-c2cn(C(C)C)c3ncccc23)nc2c(C(=O)NC3CCC3)cnn12 [I-224]	> 50000 nM	< 100 nM
CNc1cc(Nc2cc(C)cn(-c3cnn(C)c3)c2=O)nc2c(C(=O)NC3CC3)cnn12 [I-233]	> 50000 nM	< 100 nM

The remaining lines, values ahead:

IC50 [1]	IC50 [2]	Structure (SMILES)
> 12500 nM	< 100 nM	CNc1cc(Nc2cccn(-c3cnc(C(=O)N(C)C)cn3)c2=O)nc2c(C(=O)NC3CC3)cnn12 [I-127, N-cyclopropyl-5-((1-(5-(dimethylcarbamoyl)pyrazin-2-yl)-2-oxo-1,2-dihydropyridin-3-yl)amino)-7-(methylamino)pyrazolo[1,5-a]pyrimidine-3-carboxamide]
> 12500 nM	< 100 nM	CNc1cc(Nc2cccn(-c3cccc(C)n3)c2=O)nc2c(C(=O)N[C@H]3C[C@H]3F)cnn12 [I-131]
> 2500 nM	< 100 nM	CNc1cc(Nc2cccn(-c3ccc(F)cc3)c2=O)nc2c(C(=O)N[C@H]3C[C@H]3F)cnn12 [I-132]
> 12500 nM	< 100 nM	CCn1cc(Cl)cc(Nc2cc(NC)n3ncc(C(=O)NC4CC4)c3n2)c1=O [I-133, 5-((5-chloro-1-ethyl-2-oxo-1,2-dihydropyridin-3-yl)amino)-N-cyclopropyl-7-(methylamino)pyrazolo[1,5-a]pyrimidine-3-carboxamide]
> 2500 nM	< 100 nM	CNc1cc(Nc2cccn(-c3ccc(N4CCOCC4)cc3)c2=O)nc2c(C(=O)N[C@H]3C[C@H]3F)cnn12 [I-135]
> 2500 nM	< 100 nM	CNc1cc(Nc2cccn(-c3cc(C)n(C)n3)c2=O)nc2c(C(=O)NC3CCC3)cnn12 [I-136]
> 12500 nM	< 100 nM	CNc1cc(Nc2cccnc2OC(F)F)nc2c(C(=O)N[C@H]3C[C@H]3F)cnn12 [I-153]
> 12500 nM	< 100 nM	CNc1cc(Nc2cccnc2OC(F)F)nc2c(C(=O)NC3CC3)cnn12 [I-154]
> 12500 nM	< 100 nM	CNc1cc(Nc2cccn(-c3cccc(C(C)(C)O)n3)c2=O)nc2c(C(=O)NC3CCC3)cnn12 [I-156]
> 12500 nM	< 100 nM	CNc1cc(Nc2cccn(-c3cc(C)on3)c2=O)nc2c(C(=O)NC3CCC3)cnn12 [I-160]
> 12500 nM	< 100 nM	CNc1cc(Nc2cccn(-c3cc(C)on3)c2=O)nc2c(C(=O)N[C@H]3C[C@H]3F)cnn12 [I-161]
> 2500 nM	< 100 nM	CNc1cc(Nc2cccn(-c3cc(C)on3)c2=O)nc2c(C(=O)NC3CC3)cnn12 [I-162]
> 2500 nM	< 100 nM	CNc1cc(Nc2cccn(-c3ccc(N4CCOCC4)cn3)c2=O)nc2c(C(=O)NC3CCC3)cnn12 [I-163]
> 2500 nM	< 100 nM	CNc1cc(Nc2cccn(-c3ccc(C4CC4)nn3)c2=O)nc2c(C(=O)N[C@H]3C[C@H]3F)cnn12 [I-165]
> 12500 nM	< 100 nM	[2H]C([2H])([2H])Oc1ncccc1Nc1cc(NC)n2ncc(C(=O)N[C@H]3C[C@H]3F)c2n1 [I-177]
> 2500 nM	< 100 nM	CNc1cc(Nc2cccn([C@H]3CC[C@@H](N4CCOCC4)CC3)c2=O)nc2c(C(=O)NC3CCC3)cnn12 [I-182]
> 12500 nM	< 100 nM	CNc1cc(-c2c[nH]c3c(C4CCOCC4)cc(Cl)cc23)nc2c(C(N)=O)cnn12 [I-190]
> 12500 nM	< 100 nM	CNc1cc(Nc2cccn(C3CCN(CC(F)F)CC3)c2=O)nc2c(C(=O)NC3CCC3)cnn12 [I-192]
> 12500 nM	< 100 nM	CNc1cc(Nc2cc(F)cn(-c3ccccn3)c2=O)nc2c(C(=O)NC3CCC3)cnn12 [I-193]
> 12500 nM	< 100 nM	CNc1cc(Nc2cc(F)cn(-c3ccccn3)c2=O)nc2c(C(=O)N[C@H]3C[C@H]3F)cnn12 [I-194]
> 2500 nM	< 100 nM	CNc1cc(Nc2cc(F)cn(-c3ccc(C)nn3)c2=O)nc2c(C(=O)N[C@H]3C[C@H]3F)cnn12 [I-198]
> 12500 nM	< 100 nM	CNc1cc(Nc2cccnc2OC2CC2)nc2c(C(=O)NC3CCC3)cnn12 [I-216]
> 12500 nM	< 100 nM	CNc1cc(Nc2cccnc2OCCOC)nc2c(C(=O)NC3CCC3)cnn12 [I-219]
> 2500 nM	< 100 nM	CNc1cc(-c2cn(C(C)C)c3ncccc23)nc2c(C(N)=O)cnn12 [I-222, 5-(1-isopropyl-1H-pyrrolo[2,3-b]pyridin-3-yl)-7-(methylamino)pyrazolo[1,5-a]pyrimidine-3-carboxamide]
> 2500 nM	< 100 nM	CNc1cc(Nc2cc(C)cn(-c3cnn(C)c3)c2=O)nc2c(C(=O)NC3CCC3)cnn12 [I-234]
